From paper PMC6234229, “The role of loops B and C in determining the potentiation of GABAA receptors by midazolam” (Pharmacology Research & Perspectives, 2018)

Legend:
Assay in all cases: GABA concentration-response assay, whole-cell patch clamp, HEK293T
Assay type in all cases: cell-based
Conditions in all cases: GABA Hill fit
[1] = biological target: T1, α1(T163P)β2γ2 GABAA receptor (Homo sapiens, UniProt P14867+P18507+P47870, T190P)
T1 construct: expressed in transfected cells; host or cells: HEK293T
Source text: (§1) Human (Homo sapiens) GABAA subunits (α1‐6, β2, γ2s) were subcloned into pcDNA3.1+ vectors with a cytomegalovirus (CMV) promoter. The hβ2 and hα3 sequences were humanized rat (Rattus norvegicus) cDNA with amino acid substitutions made to match the human protein sequence. The α1‐3, α5, β2, and γ2s subunits were a generous gift from Neil L. Harrison (Columbia University Medical Center, NY). The α4 subunit was obtained from GenScript (Piscataway, NJ), and the α6 subunit was a generous gift from Robert L. McDonald (Vanderbilt University, TN). All point mutations (listed in Figure 1C) were introduced using the QuikChange Lightening site‐directed mutagenesis kit (Agilent Technologies, Santa Clara, CA) according to the manufacturer's instructions and were confirmed by sequencing (Eurofins MWG Operon, Louisville, KY).
(§2) Human embryonic kidney cells containing the SV40 T‐antigen (HEK293T) were acquired from American Type Culture Collection (ATCC®, Manassas, VA), catalogue number, CRL3216. HEK293T cells were maintained at 37°C and 5% CO2 in Eagle Minimum Essential Medium (MEM) supplemented with 5% fetal bovine serum (Atlanta Biologicals Inc., Flowery Branch, GA), 40 μM L‐glutamine, 100 U/mL penicillin and 0.1 mM streptomycin. Cells were passaged regularly when they reached 70% confluency using trypsin. Cells were not passaged more than 22 times. New cells were revived from frozen stocks at passage 2‐4. Cells used for in vitro electrophysiology experiments were grown on poly‐D‐lysine‐coated glass coverslips (No.2, VWR, Radnor, PA) and transfected with X‐tremeGENE (Roche Diagnostics, Indianapolis, IN) with the desired receptor subunit cDNAs at a 1:1:1 ratio to express αxβ2γ2s receptors (2 μg total cDNA) and with 0.5 μg green fluorescent protein (GFP) as an expression marker. The γ2s incorporation into receptors was tested with zinc inhibition assays regularly.24 Patch clamp experiments were performed on cells at 24‐72 hours post‐transfection. All experiments were performed at 22°C. Experiments consisted of at least five cells recorded per day from at least two transfections across 3‐4 days to control for cell health and transfection efficiency. At least three cells expressing wild‐type receptors were recorded on days that mutant receptors were tested to provide a time‐matched expression control. All reagents were purchased from Sigma‐Aldrich (St. Louis, MO) unless otherwise stated.
(§3) Extracellular solution contained 161 mM NaCl, 3 mM KCl, 1 mM MgCl2, 1.5 mM CaCl2, 10 mM HEPES, and 6 mM D‐glucose, adjusted to pH 7.4 with NaOH (320‐330 mOsm). […] The perfusion system was controlled by protocols written in pClamp 9 (Molecular Devices, LLC., Sunnyvale, CA). Whole‐cell currents were recorded at ‐60 mV, filtered at 100 Hz and sampled at 200 Hz with a MultiClamp 700B amplifier (Molecular Devices, LLC) and DigiData 1322A (Molecular Devices, LLC) digitizer. […] Cells were recorded with the midazolam protocol no more than two times to avoid desensitization and incomplete washout or irreversible modulation.
(§4) Recordings were analyzed using MATLAB (Math Works, Inc., Natick, MA). […] The maximum peak current, EC50 and Hill coefficient were estimated for assays from each cell. When Hill parameters are estimated from whole‐cell recordings, the changes in the parameters across receptor conditions can be ascribed to the following changes in receptor physiology. Changes in maximum current can be due to changes in the single‐channel conductance or the rate of desensitization. Changes in cell surface receptor expression can cause minor changes in maximum current, but are unlikely to occur in the time course of our experimental protocol. […] More often minor changes in the Hill coefficient are attributed to the altered homogeneity in the receptor population expressed by the HEK293T cell. For example, a shallower Hill coefficient could be caused by a shift in the population of receptors from mostly αβγ receptors to a combination of both αβ and αβγ receptors.

α1β2γ2 GABAA receptor = biological target: T2, α1β2γ2 GABAA receptor (Homo sapiens, UniProt P14867+P18507+P47870)
T2 construct: expressed in transfected cells; host or cells: HEK293T
Source text: as §1, §2, §3, §4

[2] = biological target: T3, α2(H101R)β2γ2 GABAA receptor (Homo sapiens, UniProt P18507+P47869+P47870, H129R)
T3 construct: expressed in transfected cells; host or cells: HEK293T
Source text: as §1, §2, §3, §4

[3] = biological target: T4, α2(S205I)β2γ2 GABAA receptor (Homo sapiens, UniProt P18507+P47869+P47870, S233I)
T4 construct: expressed in transfected cells; host or cells: HEK293T
Source text: as §1, §2, §3, §4

α2β2γ2 GABAA receptor = biological target: T5, α2β2γ2 GABAA receptor (Homo sapiens, UniProt P18507+P47869+P47870)
T5 construct: expressed in transfected cells; host or cells: HEK293T
Source text: as §1, §2, §3, §4

[4] = biological target: T6, α3(T187P)β2γ2 GABAA receptor (Homo sapiens, UniProt P18507+P34903+P47870, T215P)
T6 construct: expressed in transfected cells; host or cells: HEK293T
Source text: as §1, §2, §3, §4

[5] = biological target: T7, α4(I204S)β2γ2 GABAA receptor (Homo sapiens, UniProt P18507+P47870+P48169, I239S)
T7 construct: expressed in transfected cells; host or cells: HEK293T
T7 sequence (P48169 36-554 I239S): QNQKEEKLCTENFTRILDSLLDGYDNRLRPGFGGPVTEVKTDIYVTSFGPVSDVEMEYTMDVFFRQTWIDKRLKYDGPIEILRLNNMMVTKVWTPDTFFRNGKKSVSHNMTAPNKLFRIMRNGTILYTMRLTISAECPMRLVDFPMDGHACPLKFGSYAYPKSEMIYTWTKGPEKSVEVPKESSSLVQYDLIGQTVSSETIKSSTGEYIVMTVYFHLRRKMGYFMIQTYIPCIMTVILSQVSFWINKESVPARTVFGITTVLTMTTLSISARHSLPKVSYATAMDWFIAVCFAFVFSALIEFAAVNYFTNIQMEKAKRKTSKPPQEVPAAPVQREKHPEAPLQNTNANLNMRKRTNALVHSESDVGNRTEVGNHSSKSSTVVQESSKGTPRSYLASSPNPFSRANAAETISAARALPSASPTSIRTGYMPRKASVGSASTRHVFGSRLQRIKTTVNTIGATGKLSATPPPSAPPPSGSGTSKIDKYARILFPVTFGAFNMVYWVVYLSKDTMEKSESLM
T7 sequence (P47870 26-474 isoform P47870-1 limits assumed, stated change not applied): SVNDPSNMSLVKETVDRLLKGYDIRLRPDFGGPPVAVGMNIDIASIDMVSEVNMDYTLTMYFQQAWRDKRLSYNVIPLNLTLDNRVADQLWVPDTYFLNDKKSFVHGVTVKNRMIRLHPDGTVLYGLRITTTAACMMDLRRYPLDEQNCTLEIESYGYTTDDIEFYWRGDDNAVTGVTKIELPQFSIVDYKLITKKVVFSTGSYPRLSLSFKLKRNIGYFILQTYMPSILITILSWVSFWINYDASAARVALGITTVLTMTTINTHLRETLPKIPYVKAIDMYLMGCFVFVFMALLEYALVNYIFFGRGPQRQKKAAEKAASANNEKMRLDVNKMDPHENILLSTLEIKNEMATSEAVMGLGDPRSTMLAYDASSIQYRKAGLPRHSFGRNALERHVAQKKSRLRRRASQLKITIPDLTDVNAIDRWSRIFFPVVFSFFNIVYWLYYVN
T7 sequence (P18507 40-467 isoform P18507-1 limits assumed, stated change not applied): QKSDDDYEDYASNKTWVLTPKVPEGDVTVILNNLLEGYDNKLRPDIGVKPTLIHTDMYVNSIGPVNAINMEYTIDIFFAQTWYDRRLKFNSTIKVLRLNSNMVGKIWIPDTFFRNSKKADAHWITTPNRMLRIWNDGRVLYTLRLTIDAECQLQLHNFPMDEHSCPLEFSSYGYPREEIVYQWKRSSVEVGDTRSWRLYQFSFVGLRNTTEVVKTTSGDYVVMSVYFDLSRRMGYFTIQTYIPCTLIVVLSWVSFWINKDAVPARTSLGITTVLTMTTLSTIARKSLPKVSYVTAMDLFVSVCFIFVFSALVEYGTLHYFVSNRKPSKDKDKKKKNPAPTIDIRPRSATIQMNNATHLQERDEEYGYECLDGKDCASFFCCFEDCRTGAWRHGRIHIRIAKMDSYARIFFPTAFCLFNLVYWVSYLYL
Source text: as §1, §2, §3, §4

[6] = biological target: T8, α4(P161T)β2γ2 GABAA receptor (Homo sapiens, UniProt P18507+P47870+P48169, P196T)
T8 construct: expressed in transfected cells; host or cells: HEK293T
Source text: as §1, §2, §3, §4

[7] = biological target: T9, α4(R100H)β2γ2 GABAA receptor (Homo sapiens, UniProt P18507+P47870+P48169, R135H)
T9 construct: expressed in transfected cells; host or cells: HEK293T
Source text: as §1, §2, §3, §4

α4β2γ2 GABAA receptor = biological target: T10, α4β2γ2 GABAA receptor (Homo sapiens, UniProt P18507+P47870+P48169)
T10 construct: expressed in transfected cells; host or cells: HEK293T
Source text: as §1, §2, §3, §4

[8] = biological target: T11, α5(H105R)β2γ2 GABAA receptor (Homo sapiens, UniProt P18507+P31644+P47870, H136R)
T11 construct: expressed in transfected cells; host or cells: HEK293T
T11 sequence (P31644 32-462 H136R): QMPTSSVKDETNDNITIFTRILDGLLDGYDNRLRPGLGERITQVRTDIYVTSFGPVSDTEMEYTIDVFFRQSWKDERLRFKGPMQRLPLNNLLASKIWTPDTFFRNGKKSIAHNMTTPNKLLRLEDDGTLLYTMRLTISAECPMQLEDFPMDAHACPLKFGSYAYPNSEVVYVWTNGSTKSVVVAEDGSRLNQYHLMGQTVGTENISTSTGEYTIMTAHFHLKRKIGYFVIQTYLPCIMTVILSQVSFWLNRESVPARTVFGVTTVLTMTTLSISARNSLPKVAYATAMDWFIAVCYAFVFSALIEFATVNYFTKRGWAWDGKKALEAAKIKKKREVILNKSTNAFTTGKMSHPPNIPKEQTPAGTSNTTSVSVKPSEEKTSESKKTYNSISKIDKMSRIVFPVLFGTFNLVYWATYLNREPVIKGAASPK
T11 sequence (P47870 26-474 isoform P47870-1 limits assumed, stated change not applied): as the sequence (P47870 26-474 isoform P47870-1 limits assumed, stated change not applied) above
T11 sequence (P18507 40-467 isoform P18507-1 limits assumed, stated change not applied): as the sequence (P18507 40-467 isoform P18507-1 limits assumed, stated change not applied) above
Source text: as §1, §2, §3, §4

α5β2γ2 GABAA receptor = biological target: T12, α5β2γ2 GABAA receptor (Homo sapiens, UniProt P18507+P31644+P47870)
T12 construct: expressed in transfected cells; host or cells: HEK293T
T12 sequence (P31644 32-462): as the sequence (P31644 32-462 H136R) above, with R105H counted along it
T12 sequence (P47870 26-474 isoform P47870-1 limits assumed): as the sequence (P47870 26-474 isoform P47870-1 limits assumed, stated change not applied) above
T12 sequence (P18507 40-467 isoform P18507-1 limits assumed): as the sequence (P18507 40-467 isoform P18507-1 limits assumed, stated change not applied) above
Source text: as §1, §2, §3, §4

[9] = biological target: T13, α6(N204I)β2γ2 GABAA receptor (Homo sapiens, UniProt P18507+P47870+Q16445, N223I)
T13 construct: expressed in transfected cells; host or cells: HEK293T
Source text: as §1, §2, §3, §4

## NCCCC(=O)O [GABA, γ‐aminobutyric acid]
[1]
  Hill coefficient: 1.230 ± 0.049
  Max Current (pA): -2449 ± 376.1 pA
α1β2γ2 GABAA receptor
  Hill coefficient: 1.400 ± 0.102
  Max Current (pA): -4218 ± 601.6 pA
[2]
  Hill coefficient: 1.443 ± 0.092
  Max Current (pA): -3186 ± 390.8 pA
[3]
  Hill coefficient: 1.452 ± 0.151
  Max Current (pA): -7835 pA
α2β2γ2 GABAA receptor
  Hill coefficient: 1.581 ± 0.074
  Max Current (pA): -3326 ± 356.7 pA
[4]
  Max Current (pA): -1993 ± 189.7 pA
[5]
  Hill coefficient: 1.180 ± 0.072
  Max Current (pA): -3424 ± 394.5 pA
[6]
  Max Current (pA): -4487 ± 397.2 pA
[7]
  Hill coefficient: 1.215 ± 0.079
  Max Current (pA): -3049 ± 378.6 pA
α4β2γ2 GABAA receptor
  Hill coefficient: 1.113 ± 0.063
  Max Current (pA): -3039 ± 347.3 pA
[8]
  Hill coefficient: 1.269 ± 0.084
  Max Current (pA): -6799 ± 919.2 pA
α5β2γ2 GABAA receptor
  Hill coefficient: 1.547 ± 0.123
  Max Current (pA): -5115 ± 315.9 pA
[9]
  Max Current (pA): -3549 ± 408.6 pA
